Assay results reported in ChEMBL document CHEMBL5042487, “Design, synthesis, and biological activity evaluation of 2-(benzo[b]thiophen-2-yl)-4-phenyl-4,5-dihydrooxazole derivatives as broad-spectrum antifungal agents” (Eur J Med Chem, 2022).
In brackets after ≈: the same amount, converted by molar mass.

Tests used:
Candida albicans [1] = test: Antifungal activity against Candida albicans SC5314 assessed as inhibition of fungal growth by NCCLS protocol based method; format: functional
Candida albicans [2] = test: Antifungal activity against Candida albicans GIM 2.194 assessed as inhibition of fungal growth by NCCLS protocol based method; format: functional
Cryptococcus neoformans = test: Antifungal activity against Cryptococcus neoformans GIM 2.209 assessed as inhibition of fungal growth by NCCLS protocol based method; format: functional
Candida tropicalis = test: Antifungal activity against Candida tropicalis GIM 2.183 assessed as inhibition of fungal growth by NCCLS protocol based method; format: functional
Aspergillus fumigatus = test: Antifungal activity against Aspergillus fumigatus CGMCC 3.7795 assessed as inhibition of fungal growth by NCCLS protocol based method; format: functional
Candida albicans [3] = test: Antifungal activity against fluconazole and itraconazole resistant Candida albicans 17# assessed as inhibition of fungal growth by NCCLS protocol based method; format: functional
Candida albicans [4] = test: Antifungal activity against fluconazole resistant Candida albicans CaR assessed as inhibition of fungal growth by NCCLS protocol based method; format: functional
[5] = Stability in human plasma assessed as half life incubated for 60 mins by LC-MS/MS analysis; format: ADME, cell-free
[6] = Stability in human plasma assessed as compound remaining incubated for 60 mins by LC-MS/MS analysis; format: ADME, cell-free; details: read-out: Stability
[7] = Stability in human plasma assessed as compound remaining incubated for 120 mins by LC-MS/MS analysis; format: ADME, cell-free; details: 2 h

With c1ccc(C2(Cn3cncn3)COC(c3ccc(-c4ccoc4)cc3)=N2)cc1 (configuration not stated) the MIC (Candida albicans [1]) was < 0.03 µg/mL, the MIC (Candida albicans [2]) was 0.5 µg/mL (≈ 1.35 µM) and the MIC (Cryptococcus neoformans) was 0.25 µg/mL (≈ 0.675 µM). For the same compound, the MIC (Candida tropicalis) was < 0.125 µg/mL and the MIC (Aspergillus fumigatus) was 0.5 µg/mL (≈ 1.35 µM).

In the case of Fc1ccc2cc(C3=NC(Cn4cncn4)(c4ccccc4)CO3)sc2c1 (configuration not stated), the MIC (Candida albicans [1]) is reported as 0.25 µg/mL (≈ 0.661 µM), the MIC (Candida albicans [2]) is reported as 1 µg/mL (≈ 2.64 µM) and the MIC (Cryptococcus neoformans) is reported as 4 µg/mL (≈ 10.6 µM). The MIC (Candida tropicalis) was 4 µg/mL (≈ 10.6 µM) and the MIC (Aspergillus fumigatus) was 2 µg/mL (≈ 5.28 µM).

With Fc1ccc2sc(C3=NC(Cn4cncn4)(c4ccccc4)CO3)cc2c1 (configuration not stated) the MIC (Candida albicans [1]) was 1 µg/mL (≈ 2.64 µM), the MIC (Candida albicans [2]) was > 16 µg/mL and the MIC (Cryptococcus neoformans) was 16 µg/mL (≈ 42.3 µM). For the same compound, the MIC (Candida tropicalis) was > 16 µg/mL and the MIC (Aspergillus fumigatus) was 1 µg/mL (≈ 2.64 µM).

With O=C(Nc1ccc(C2=NC(Cn3cncn3)(c3ccccc3)CO2)cc1)c1ccccc1 (configuration not stated) the MIC (Candida albicans [1]) was > 16 µg/mL, the MIC (Candida albicans [2]) was 8 µg/mL (≈ 18.9 µM) and the MIC (Cryptococcus neoformans) was > 64 µg/mL. The MIC (Candida tropicalis) was > 64 µg/mL and the MIC (Aspergillus fumigatus) was > 64 µg/mL.

In the case of N#Cc1ccc2cc(C3=NC(Cn4cncn4)(c4ccccc4)CO3)sc2c1 (configuration not stated), the MIC (Candida albicans [1]) is reported as > 16 µg/mL, the MIC (Candida albicans [2]) is reported as > 16 µg/mL and the MIC (Cryptococcus neoformans) is reported as > 64 µg/mL. For the same compound, the MIC (Candida tropicalis) was > 16 µg/mL and the MIC (Aspergillus fumigatus) was > 64 µg/mL.

In the case of c1ccc(-c2cc(C3=NC(Cn4cncn4)(c4ccccc4)CO3)no2)cc1 (configuration not stated), the MIC (Candida albicans [1]) is reported as > 16 µg/mL, the MIC (Candida albicans [2]) is reported as > 16 µg/mL and the MIC (Cryptococcus neoformans) is reported as > 64 µg/mL. The MIC (Candida tropicalis) was > 64 µg/mL and the MIC (Aspergillus fumigatus) was 2 µg/mL (≈ 5.39 µM).

For c1ccc(C2=NC(Cn3cncn3)(c3ccccc3)CO2)cc1 (configuration not stated), the MIC (Candida albicans [1]) was > 16 µg/mL, the MIC (Candida albicans [2]) was > 16 µg/mL and the MIC (Cryptococcus neoformans) was > 64 µg/mL. The MIC (Candida tropicalis) was > 64 µg/mL and the MIC (Aspergillus fumigatus) was > 64 µg/mL.

With Clc1ccc(C2(Cn3cncn3)COC(c3cc4ccc(Br)cc4s3)=N2)cc1 (configuration not stated) the MIC (Candida albicans [1]) was < 0.03 µg/mL, the MIC (Candida albicans [3]) was > 64 µg/mL and the MIC (Candida albicans [2]) was < 0.03 µg/mL. It also gave an MIC (Cryptococcus neoformans) of 0.25 µg/mL (≈ 0.528 µM), an MIC (Candida albicans [4]) of 0.5 µg/mL (≈ 1.06 µM) and an MIC (Candida tropicalis) of 0.06 µg/mL (≈ 0.127 µM). It also gave an MIC (Aspergillus fumigatus) of 1 µg/mL (≈ 2.11 µM).

With FC(F)(F)c1ccc2cc(C3=NC(Cn4cncn4)(c4ccccc4)CO3)sc2c1 (configuration not stated) the MIC (Candida albicans [1]) was 0.25 µg/mL (≈ 0.584 µM), the MIC (Candida albicans [2]) was > 16 µg/mL and the MIC (Cryptococcus neoformans) was 16 µg/mL (≈ 37.3 µM). For the same compound, the MIC (Candida tropicalis) was 8 µg/mL (≈ 18.7 µM) and the MIC (Aspergillus fumigatus) was > 64 µg/mL.

With c1ccc(C2(Cn3cncn3)COC(c3cc4ccccc4s3)=N2)cc1 (configuration not stated) the MIC (Candida albicans [1]) was 0.25 µg/mL (≈ 0.694 µM), the MIC (Candida albicans [2]) was 1 µg/mL (≈ 2.77 µM) and the MIC (Cryptococcus neoformans) was 0.25 µg/mL (≈ 0.694 µM). For the same compound, the MIC (Candida tropicalis) was 2 µg/mL (≈ 5.55 µM) and the MIC (Aspergillus fumigatus) was 1 µg/mL (≈ 2.77 µM).

For c1ccc(C2(Cn3cncn3)COC(c3ccc4ccccc4c3)=N2)cc1 (configuration not stated), the MIC (Candida albicans [1]) was > 16 µg/mL, the MIC (Candida albicans [2]) was > 16 µg/mL and the MIC (Cryptococcus neoformans) was 1 µg/mL (≈ 2.82 µM). The MIC (Candida tropicalis) was > 64 µg/mL and the MIC (Aspergillus fumigatus) was 4 µg/mL (≈ 11.3 µM).

For Fc1ccc(C2(Cn3cncn3)COC(c3cc4ccc(Cl)cc4s3)=N2)c(F)c1 (configuration not stated), the MIC (Candida albicans [1]) was 0.06 µg/mL (≈ 0.139 µM), the MIC (Candida albicans [2]) was < 0.03 µg/mL and the MIC (Cryptococcus neoformans) was 0.25 µg/mL (≈ 0.58 µM). The MIC (Candida tropicalis) was 0.06 µg/mL (≈ 0.139 µM) and the MIC (Aspergillus fumigatus) was > 64 µg/mL.

Work on Clc1cccc(C2(Cn3cncn3)COC(c3cc4ccc(Br)cc4s3)=N2)c1 (configuration not stated) yielded an MIC (Candida albicans [1]) of 0.06 µg/mL (≈ 0.127 µM), an MIC (Candida albicans [2]) of 0.06 µg/mL (≈ 0.127 µM) and an MIC (Cryptococcus neoformans) of 0.5 µg/mL (≈ 1.06 µM). For the same compound, the MIC (Candida tropicalis) was 0.125 µg/mL (≈ 0.264 µM) and the MIC (Aspergillus fumigatus) was 16 µg/mL (≈ 33.8 µM).

In the case of Fc1cc(F)cc(C2(Cn3cncn3)COC(c3cc4ccc(Cl)cc4s3)=N2)c1 (configuration not stated), the MIC (Candida albicans [1]) is reported as 0.06 µg/mL (≈ 0.139 µM), the MIC (Candida albicans [2]) is reported as 0.06 µg/mL (≈ 0.139 µM) and the MIC (Cryptococcus neoformans) is reported as 0.25 µg/mL (≈ 0.58 µM). The MIC (Candida tropicalis) was 0.125 µg/mL (≈ 0.29 µM) and the MIC (Aspergillus fumigatus) was > 64 µg/mL.

In the case of Brc1ccc2cc(C3=NC(Cn4cncn4)(c4ccccc4)CO3)sc2c1 (configuration not stated), the MIC (Candida albicans [1]) is reported as < 0.03 µg/mL, the MIC (Candida albicans [2]) is reported as 0.06 µg/mL (≈ 0.137 µM) and the MIC (Cryptococcus neoformans) is reported as 0.25 µg/mL (≈ 0.569 µM). For the same compound, the MIC (Candida tropicalis) was 0.06 µg/mL (≈ 0.137 µM) and the MIC (Aspergillus fumigatus) was 0.5 µg/mL (≈ 1.14 µM).

For Clc1ccc2cc(C3=NC(Cn4cncn4)(c4ccccc4)CO3)sc2c1 (configuration not stated), the MIC (Candida albicans [1]) was < 0.03 µg/mL, the MIC (Candida albicans [2]) was 0.06 µg/mL (≈ 0.152 µM) and the MIC (Cryptococcus neoformans) was 0.25 µg/mL (≈ 0.633 µM). For the same compound, the MIC (Candida tropicalis) was 0.06 µg/mL (≈ 0.152 µM) and the MIC (Aspergillus fumigatus) was 0.5 µg/mL (≈ 1.27 µM).

In the case of FC(F)(F)c1ccc2sc(C3=NC(Cn4cncn4)(c4ccccc4)CO3)cc2c1 (configuration not stated), the MIC (Candida albicans [1]) is reported as 0.5 µg/mL (≈ 1.17 µM), the MIC (Candida albicans [2]) is reported as > 16 µg/mL and the MIC (Cryptococcus neoformans) is reported as > 64 µg/mL. The MIC (Candida tropicalis) was > 16 µg/mL and the MIC (Aspergillus fumigatus) was > 64 µg/mL.

In the case of Clc1cccc(C2(Cn3cncn3)COC(c3cc4ccc(Cl)cc4s3)=N2)c1 (configuration not stated), the MIC (Candida albicans [1]) is reported as 0.06 µg/mL (≈ 0.14 µM), the MIC (Candida albicans [2]) is reported as 0.06 µg/mL (≈ 0.14 µM) and the MIC (Cryptococcus neoformans) is reported as 0.5 µg/mL (≈ 1.16 µM). For the same compound, the MIC (Candida tropicalis) was 0.125 µg/mL (≈ 0.291 µM) and the MIC (Aspergillus fumigatus) was 16 µg/mL (≈ 37.3 µM).

With OC(Cn1cncn1)(Cn1cncn1)c1ccc(F)cc1F [FLUCONAZOLE] the MIC (Candida albicans [1]) was 0.5 µg/mL (≈ 1.63 µM), the MIC (Candida albicans [3]) was > 64 µg/mL and the half-life [5] was > 289 min. For the same compound, the MIC (Candida albicans [2]) was 1 µg/mL (≈ 3.27 µM), the remaining at 1 h [6] was 86.7% and the MIC (Cryptococcus neoformans) was 4 µg/mL (≈ 13.1 µM). The MIC (Candida albicans [4]) was > 64 µg/mL, the MIC (Candida tropicalis) was 1 µg/mL (≈ 3.27 µM) and the Stability [7] was 88.2%. For the same compound, the MIC (Aspergillus fumigatus) was > 64 µg/mL.

With CCC(C)n1ncn(-c2ccc(N3CCN(c4ccc(OCC5COC(Cn6cncn6)(c6ccc(Cl)cc6Cl)O5)cc4)CC3)cc2)c1=O (configuration not stated) [ITRACONAZOLE] the MIC (Candida albicans [1]) was < 0.03 µg/mL, the MIC (Candida albicans [2]) was < 0.03 µg/mL and the MIC (Cryptococcus neoformans) was < 0.125 µg/mL. For the same compound, the MIC (Candida tropicalis) was < 0.03 µg/mL and the MIC (Aspergillus fumigatus) was < 0.125 µg/mL.
